Article PMC10112504, “Novel 4-thiophenyl-pyrazole, pyridine, and pyrimidine derivatives as potential antitumor candidates targeting both EGFR and VEGFR-2; design, synthesis, biological evaluations, and in silico studies” (RSC Advances, 2023)

Key:
[1] = system: HepG-2; assay: Anti-proliferative activity, SRB colorimetric assay; format: cell-based; conditions: for IC50: Homo sapiens, HepG2, HepG-2 cancer cell line, SRB assay, read-out: Cell lines (IC50 μM) HepG-2; for anti-proliferative activity against HepG-2, in words: authors' grading of Table 1 values, key not given
[2] = system: A. flavus; assay: Antifungal activity, inhibition zone approach; format: cell-based, Aspergillus flavus; conditions: for A. flavus Diameter of inhibition zone (mm): Fungi; for A. flavus % Activity index: ketoconazole = 100; for antimicrobial activity with A. flavus, in words: authors' grading of Table 2 values, key not given
[3] = system: P. aeuroginosa; assay: Antibacterial activity, inhibition zone approach; format: cell-based, Pseudomonas aeuroginosa; conditions: for P. aeuroginosa Diameter of inhibition zone (mm): Gram-negative bacteria; for P. aeuroginosa % Activity index: gentamicin = 100; for antimicrobial activity with P. aeuroginosa, in words: authors' grading of Table 2 values, key not given
[4] = system: B. subtilis; assay: Antibacterial activity, inhibition zone approach; format: cell-based, Bacillus subtilis; conditions: for B. subtilis Diameter of inhibition zone (mm): Gram-positive bacteria; for B. subtilis % Activity index: gentamicin = 100; for antimicrobial activity with B. subtilis, in words: authors' grading of Table 2 values, key not given
[5] = system: E. coli; assay: Antibacterial activity, inhibition zone approach; format: cell-based, Escherichia coli; conditions: for E. coli Diameter of inhibition zone (mm): Gram-negative bacteria; for E. coli % Activity index: gentamicin = 100; for antimicrobial activity with E. coli, in words: authors' grading of Table 2 values, key not given
[6] = system: C. albicans; assay: Antifungal activity, inhibition zone approach; format: cell-based, Candida albicans; conditions: for C. albicans Diameter of inhibition zone (mm): Fungi; for C. albicans % Activity index: ketoconazole = 100; for antimicrobial activity with C. albicans, in words: authors' grading of Table 2 values, key not given
[7] = system: S. aureus; assay: Antibacterial activity, inhibition zone approach; format: cell-based, Staphylococcus aureus; conditions: for S. aureus Diameter of inhibition zone (mm): Gram-positive bacteria; for S. aureus % Activity index: gentamicin = 100; for antimicrobial activity with S. aureus, in words: authors' grading of Table 2 values, key not given
[8] = system: MCF-7; assay: Anti-proliferative activity, SRB colorimetric assay; format: cell-based; conditions: for IC50: Homo sapiens, MCF7, MCF-7 cancer cell line, SRB assay, read-out: Cell lines (IC50 μM) MCF-7; for anti-proliferative activity against MCF-7, in words: authors' grading of Table 1 values, key not given
[9] = target: EGFR (Homo sapiens, UniProt P00533); assay: EGFR inhibitory activity, homogeneous luminescence release assay; format: biochemical; conditions: reference erlotinib; read-out: EGFR inhibition IC50
Sequence of EGFR (P00533 25-1210): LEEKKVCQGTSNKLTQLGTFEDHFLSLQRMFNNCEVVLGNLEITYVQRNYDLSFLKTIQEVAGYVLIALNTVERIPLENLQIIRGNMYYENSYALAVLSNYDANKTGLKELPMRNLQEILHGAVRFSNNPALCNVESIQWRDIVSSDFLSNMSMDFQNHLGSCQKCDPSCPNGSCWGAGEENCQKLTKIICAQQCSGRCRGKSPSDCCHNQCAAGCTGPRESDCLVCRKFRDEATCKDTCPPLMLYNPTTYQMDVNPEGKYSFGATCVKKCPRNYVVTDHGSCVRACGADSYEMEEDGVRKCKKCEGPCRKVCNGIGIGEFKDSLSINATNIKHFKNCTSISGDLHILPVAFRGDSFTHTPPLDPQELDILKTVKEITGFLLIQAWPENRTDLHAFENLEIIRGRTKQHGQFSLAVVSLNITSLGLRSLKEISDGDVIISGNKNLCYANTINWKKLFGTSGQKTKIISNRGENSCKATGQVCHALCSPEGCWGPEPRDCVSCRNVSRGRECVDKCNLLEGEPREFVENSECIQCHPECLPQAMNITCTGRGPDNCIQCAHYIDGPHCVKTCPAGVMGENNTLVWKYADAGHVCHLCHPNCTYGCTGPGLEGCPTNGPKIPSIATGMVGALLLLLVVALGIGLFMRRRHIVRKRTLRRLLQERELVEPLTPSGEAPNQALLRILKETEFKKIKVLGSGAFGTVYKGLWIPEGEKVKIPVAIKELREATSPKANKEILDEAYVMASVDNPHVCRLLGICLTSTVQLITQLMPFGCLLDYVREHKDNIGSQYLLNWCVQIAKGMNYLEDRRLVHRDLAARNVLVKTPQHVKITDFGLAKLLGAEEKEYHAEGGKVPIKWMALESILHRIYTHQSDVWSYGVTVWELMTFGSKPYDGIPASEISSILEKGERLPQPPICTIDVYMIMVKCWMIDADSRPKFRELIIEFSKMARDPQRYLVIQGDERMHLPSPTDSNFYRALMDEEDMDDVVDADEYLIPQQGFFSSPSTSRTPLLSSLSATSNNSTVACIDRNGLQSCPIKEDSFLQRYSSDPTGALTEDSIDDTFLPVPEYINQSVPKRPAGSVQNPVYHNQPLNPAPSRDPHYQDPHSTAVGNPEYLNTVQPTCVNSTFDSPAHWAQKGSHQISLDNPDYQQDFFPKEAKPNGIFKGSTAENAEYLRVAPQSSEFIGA

| Compound | melting point [°C] | IC50 [1] [µM] | anti-proliferative activity against HepG-2, in words [1] | A. flavus Diameter of inhibition zone (mm) [2] [mm] | A. flavus % Activity index [2] [%] | P. aeuroginosa Diameter of inhibition zone (mm) [3] [mm] | P. aeuroginosa % Activity index [3] [%] | B. subtilis Diameter of inhibition zone (mm) [4] [mm] | B. subtilis % Activity index [4] [%] | E. coli Diameter of inhibition zone (mm) [5] [mm] | E. coli % Activity index [5] [%] | C. albicans Diameter of inhibition zone (mm) [6] [mm] | C. albicans % Activity index [6] [%] | S. aureus Diameter of inhibition zone (mm) [7] [mm] | S. aureus % Activity index [7] [%] | IC50 [8] [µM] | anti-proliferative activity against MCF-7, in words [8] | antimicrobial activity with A. flavus, in words [2] | antimicrobial activity with P. aeuroginosa, in words [3] | antimicrobial activity with B. subtilis, in words [4] | further results |
| --- | --- | --- | --- | --- | --- | --- | --- | --- | --- | --- | --- | --- | --- | --- | --- | --- | --- | --- | --- | --- | --- |
| N#Cc1c(-c2cccs2)cc(-c2ccc(O)cc2)nc1O [5a, 2-hydroxy-6-(4-hydroxyphenyl)-4-(thiophen-2-yl)nicotinonitrile] | 200 | 43 ± 2.5 | moderate | 8 | 30.8 | 10 | 52.6 | 10 | 45.4 | 5 | 23.8 | 14 | 50.0 | 6 | 33.3 | 38.4 ± 2.5 | moderate | – | – | – | – |
| N#Cc1c(N)c2c(-c3cccs3)cc(-c3ccc(O)cc3)nc2[nH]c1=O [6a, 4-amino-7-(4-hydroxyphenyl)-2-oxo-5-(thiophen-2-yl)-1,2-dihydro-1,8-naphthyridine-3-carbonitrile] | 260 | 16.2 ± 1.3 | strong | 8 | 30.8 | 7 | 36.8 | 9 | 40.9 | 4 | 19.0 | 12 | 42.8 | 5 | 27.8 | 19.1 ± 1.6 | strong | – | – | – | IC50 [9]: 326 nM |
| O=C(CCl)SC(=S)N1N=C(c2ccc(O)cc2)CC1c1cccs1 (stereo not drawn) [20a, 2-Chloroacetic-3-(4-hydroxyphenyl)-5-(thiophen-2-yl)-4,5-dihydro-1H-pyrazole-1-carbothioic thioanhydride] | 265 | 67.4 ± 3.5 | weak | 7 | 26.9 | 4 | 21.0 | 6 | 27.3 | – | – | 9 | 32.1 | 3 | 16.7 | 56.2 ± 3.3 | weak | weak | weak | weak | antimicrobial activity with E. coli, in words [5]: weak; antimicrobial activity with C. albicans, in words [6]: weak; antimicrobial activity with S. aureus, in words [7]: weak |
| O=C(O)CSC(=S)N1N=C(c2ccc(O)cc2)CC1c1cccs1 (stereo not drawn) [19a, 2-((3-(4-Hydroxyphenyl)-5-(thiophen-2-yl)-4,5-dihydro-1H-pyrazole-1-carbonothioyl)thio)acetic acid] | 223 to 225 | 28.2 ± 1.9 | moderate | 13 | 50.0 | 12 | 63.1 | 14 | 63.6 | 9 | 42.8 | 16 | 57.1 | 10 | 55.5 | 14.7 ± 1.2 | strong | moderate | moderate | moderate | antimicrobial activity with E. coli, in words [5]: moderate; antimicrobial activity with C. albicans, in words [6]: moderate; antimicrobial activity with S. aureus, in words [7]: moderate |
| NC(=S)n1nc(-c2ccc(O)cc2)cc1-c1cccs1 [10a, 3-(4-hydroxyphenyl)-5-(thiophen-2-yl)-1H-pyrazole-1-carbothioamide] | 195 to 197 | 39.1 ± 2.4 | moderate | 11 | 42.3 | 12 | 63.1 | 13 | 59.1 | 8 | 38.1 | 13 | 46.4 | 9 | 50.0 | 23.7 ± 1.7 | moderate | moderate | moderate | moderate | antimicrobial activity with E. coli, in words [5]: moderate; antimicrobial activity with C. albicans, in words [6]: moderate; antimicrobial activity with S. aureus, in words [7]: moderate |
| Oc1ccc(-c2cc(-c3cccs3)nc(/N=C/c3ccccc3O)n2)cc1 [13a, (E)-2-(((4-(4-hydroxyphenyl)-6-(thiophen-2-yl)pyrimidin-2-yl)imino)methyl)phenol] | 133 to 135 | 34.8 ± 2.3 | – | 16 | 61.5 | 15 | 78.9 | 18 | 81.8 | 13 | 61.9 | 21 | 75.0 | 14 | 77.8 | 42.8 ± 2.6 | – | very strong | very strong | very strong | antimicrobial activity with E. coli, in words [5]: very strong; antimicrobial activity with C. albicans, in words [6]: very strong; antimicrobial activity with S. aureus, in words [7]: very strong |
| O=C(CNC(=S)n1nc(-c2ccc(Cl)c(Cl)c2)cc1-c1cccs1)c1ccccc1 [12b, 3-(3,4-dichlorophenyl)-N-(2-oxo-2-phenylethyl)-5-(thiophen-2-yl)-1H-pyrazole-1-carbothioamide] | 160 | 29.2 ± 2.1 | – | 10 | 38.5 | 8 | 42.1 | 12 | 54.5 | 5 | 23.8 | 15 | 53.6 | 7 | 38.9 | 36 ± 2.3 | – | – | – | – | – |
